From EP0386258A1, “TETRAHYDROPYRIDINE DERIVATIVES” (Asahi Kasei Kabushiki Kaisha, priority 1988, dated 1990)
Where a name gives a salt, the structure may show the parent alone.

Assays:
male Wister rats [1] = assay: water lick conflict test, learning improvement activity (latent time); type: in vivo; details: time until first drinking water, average of no-drug rats defined as 100 (n = 5)
Text: (§1) The antianxiety activity and learning improvement activity of the compounds of the present invention were examined by using male Wister rats aged 6 weeks by a water lick conflict test by reference to a method described by Vogel J. R., Beer B. and Clody D. E. described in Psvcho^pharmacolo^qia, 1 - 7, 21 (1971).
(§2) In this test, rats having abstained from water were used and an electric shock was applied to the animals every time they drank water to bring the rats into an anxious state. Thus the activity of medicaments to the rats were determined.
This test was conducted simultaneously with the measurement of the antianxiety activity (2) and aims at measuring the latent time when the rats abstinence from water first began to drink water.
A longer latent time means the higher learning improvement activity.

Wistar rats = assay: subacute toxicity, oral administration for 35 days; details: rat, in vivo
Method: (§3) Subacute toxicities of N-(2-aminoethyl)benzo[b]thieno-[2,3-c]pyridine-3-carboamide (A-6) and N-cyclohexyl-1,2,3,4-tetrahydrobenzo[b]thieno[2,3-c]pyridine-3-carboamide (A-9) were tested by orally administering these compounds to Wistar rats for 35 days. The test was conducted in the following manner.
(§4) Each compound was compulsory orally administered to Wistar SPF rats once a day between 9.00 a.m. to 11:30 a.m. by using a 2 ml or 5 ml disposable syringe and a rat gastric sound for 35 days continuously. Syringes were exchanged for each dose and for each compound. The administration period was determined by referring the initial day of the administration as to 0 day.

[2] = subacute toxicity, oral administration for 35 days; details: rat, in vivo
Method: as §3, §4

[3] = test system: akinesia of mice during forced swimming; assay: mill wheel test (forced swimming), psychoanaleptic activity; type: in vivo
Method: This test was conducted in the following manner according to a method described in S. Nomura et al., Eur. J. Pharmacol., 83, 171 - 175 (1982).
Activities of each drug on the akinesia of mice during forced swimming were examined by a mill wheel test. Now the meaning of this test will be described. The akinesia observed during forced swimming of mice may be regarded as emotional disturbance since the animals resign escaping from the narrow environment (device) as the result of learning. It has been known that this akinesia can be shortened by drugs having psychoanaleptic effects such as antidepressants or MAO inhibitors. Namely, each drug was orally administered to a mouse. 40 minutes after the administration, the mouse was introduced into a water tank provided with a mill wheel and contained water at 25 °C. Then, the number of rotations of the wheel was counted throughout the observation period (6 minutes). However, P-CC2 was subcutaneously administered to avoid decomposition in digestive organ and the examination was conducted for 15 minutes thereafter (see Margaret M. Schweri, Joseph V. Martin, Wallace B. Mendelson, James E. Barrett, Steven M. Paul and Phil Skolnick, Life Science, 1505-1510, 33 (1983) and P. Skolnick, M. M. Schweri, S. M. Paul, J. V. Martin and W. B. Mendelson, Life Science, 2439-2445, 32 (1983)).

male Wister rats [4] = assay: water lick conflict test, antianxiety activity (shocked number); type: in vivo; details: electric shocks within 5 minutes, no-drug rat defined as 100 (n = 5)
Text: as §1, §2
Rats, having abstained from water for 24 hours prior to the test, were allowed to access to water. After 4 to 5 hours, a drug was administered to the animals. After a definite treatment period, the test was initiated. The shocked number means the number of electric shocks applied to the rats within 5 minutes after initially allowing them to access to water. […] That is, an increase in the shocked number means that the antianxiety activity is increased.

[5] = 60 mg/kg orally, 40 minutes after administration, observation period 6 minutes, water at 25 °C

Compound	Numbers of Rotations of Wheel [3, 5]	Latent Time (male Wister rats [1]; 40 mg/kg P.O.)	Shocked Number (male Wister rats [4]; 40 mg/kg P.O.)	also measured
O=C(NC1CCCCC1)C1Cc2c(sc3ccccc23)CN1 (centres unmarked) [Compound A-9, N-cyclohexyl-1,2,3,4-tetrahydrobenzo[b]thieno-[2,3-c]pyridine-3-carboamide hydrochloride]	37.1±8.0	–	–	Latent Time (male Wister rats [1]; 30 mg/kg P.O.): 350±32; Toxic (lethal) Dose (Wistar rats): 800 mg/kg; NOAEL at 840 h ([2]; Safe Dose): 200 mg/kg; NOAEL at 840 h ([2]; Subeffective Dose): 50 mg/kg; Shocked Number (male Wister rats [4]; 30 mg/kg P.O.): 389±41
CCCCCCNC(=O)C1Cc2c(sc3ccccc23)CN1 (centres unmarked) [Compound A-8, N-hexyl-1,2,3,4-tetrahydrobenzo[b]-thieno[2,3-c]pyridine-3-carboamide]	20.9±7.6	249±36.6	111.8±28.6	–
CCOC(=O)C1Cc2c(sc3ccccc23)CN1 (centres unmarked) [Compound A-2, l,2,3,4-tetrahydrobenzo[b]thieno[2,3-c]pyridine-3-carboxylic acid ethyl ester]	26.5±2.9	–	–	–
Clc1ccc2sc3c(c2c1)CCNC3 [Compound C-1, 6-chloro-1,2,3,4-tetrahydrobenzo[b]-thieno[2,3-c]pyridine]	24.3±4.3	128±19.6	104.3±28.6	–
CCOC(=O)c1cc2c(cn1)[nH]c1ccccc12 [β-CCE, β-carboline-3-carboxylic acid ethyl ester]	–	312±38.2	82.9±20.0	Numbers of Rotations of Wheel ([3]; 10 mg/kg subcutaneously, examination 15 minutes thereafter): 23.6±4.1
CCOC(=O)c1cc2c(cn1)sc1ccccc12 [Compound A-1, benzo[b]thieno[2,3-c]pyridine-3-carboxylic acid ethyl ester]	23.4±6.8	132±29.9	117.1±25.7	–
NCCNC(=O)c1cc2c(cn1)sc1ccccc12 [Compound A-6, N-(2-aminoethyl)benzo[b]thieno[2,3-c]pyridine-3-carboamide]	25.4±9.1	–	–	Toxic (lethal) Dose (Wistar rats): 200 mg/kg; NOAEL at 840 h ([2]; Safe Dose): 50 mg/kg; NOAEL at 840 h ([2]; Subeffective Dose): 50 mg/kg
O=C(c1cc2c(cn1)sc1ccccc12)N1CCCCC1 [Compound A-4, 1-(benzo[b]thieno[2,3-c]pyridine-3-carbonyl)piperidine]	24.7±3.9	–	–	–
O=C(c1cc2c(cn1)sc1ccccc12)N1CCOCC1 [Compound A-5, 4-(benzo[b]thieno[2,3-c]pyridine-3-carbonyl)morpholine]	21.3±4.0	–	–	–
CCNC(=O)C1Cc2c(sc3ccccc23)CN1 (centres unmarked) [Compound A-7, N-ethyl-1,2,3,4-tetrahydrobenzo[b]thieno(2,3-c]pyridine-3-carboamide]	19.3±8.1	232±34.7	127.1±31.5	–
O=C(c1cc2c(cn1)sc1ccccc12)N1CCCNCC1 [Compound A-3, hexahydro-l-(benzo[b]-thieno[2,3-c]pyridine-3-carbonyl)-lH-1,4-diazepine]	22.4±6.7	–	–	–
